These results are taken from US12091402B2 (Avilar Therapeutics, Inc., priority 2021, dated 2024).

One experiment concerns the target IgG. Kind of experiment: Affinity to IgG by surface plasmon resonance (SPR). The experiment is classed as binding. On the procedure: Immobilization levels ranging from 1000-1300 resonance units (RU) are obtained. The running buffer is 10 mM HEPES, pH 7.4, 400 mM NaCl, 0.005% P20, […].
On the technique in general: Surface plasmon resonance follows binding to a sensor surface in real time, without labels.

Experiment [1] concerns the target T1, ASGPR receptor on the cell surface (HepG2 cells) (Homo sapiens, UniProt P07306).
T1 construct: host or cells: HepG2
T1 sequence (P07306 1-291): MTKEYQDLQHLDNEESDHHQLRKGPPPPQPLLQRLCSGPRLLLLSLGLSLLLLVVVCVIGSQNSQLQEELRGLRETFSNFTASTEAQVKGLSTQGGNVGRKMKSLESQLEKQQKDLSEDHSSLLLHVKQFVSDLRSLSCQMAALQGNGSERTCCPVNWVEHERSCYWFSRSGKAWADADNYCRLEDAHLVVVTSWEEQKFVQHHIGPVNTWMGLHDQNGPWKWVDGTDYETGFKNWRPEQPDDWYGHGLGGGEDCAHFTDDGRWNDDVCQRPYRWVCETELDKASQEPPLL
T1 sequence (P07307 1-311 partner): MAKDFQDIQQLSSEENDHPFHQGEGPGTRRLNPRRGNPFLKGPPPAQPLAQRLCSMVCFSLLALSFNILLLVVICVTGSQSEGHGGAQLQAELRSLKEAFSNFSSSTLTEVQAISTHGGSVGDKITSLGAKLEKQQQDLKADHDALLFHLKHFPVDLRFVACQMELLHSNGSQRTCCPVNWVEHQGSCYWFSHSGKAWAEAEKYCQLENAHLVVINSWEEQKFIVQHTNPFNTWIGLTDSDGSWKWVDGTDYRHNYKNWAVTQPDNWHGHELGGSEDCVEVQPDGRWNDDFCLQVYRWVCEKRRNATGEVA
The experiment is described as follows: Ternary complex formation assay (flow cytometry, HepG2). It counts as cell-based. The method, boiled down:
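HepG2 cells (1×10^5/well) incubated 1 h at 4 °C with 100 nM AF488-labeled anti-human IgG plus serial IgG-based degrader, or 100 nM AF488 rabbit anti-DNP plus serial DNP-based degrader. After washing, cell-associated AF488 MFI read by flow cytometry; peak MFI marks optimal degrader concentration for ternary complex.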
Background: A flow cytometer gives signals particle by particle.

The test system of a further experiment is HepG2 cells. Kind of experiment: Cellular uptake assay of AF488-labeled antibody (HepG2). The following applies: HepG2 cells. The experiment is classed as cell-based. Put shortly:
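HepG2 cells given 100 nM AF488-labeled human IgG or DNP antibody plus serial dilutions of matching degrader (0.1% DMSO final), 6 h at 37° C. Methanol-fixed, DAPI-stained and imaged by high-content analysis. Value is the fraction of AF488-positive cells over total DAPI-counted cells.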

The target of the next experiment is T2, ASGPR (Homo sapiens, UniProt P07306).
T2 sequence (P07306 1-291): T1 sequence (P07306 1-291)
The experiment is described as follows: Affinity to ASGPR by surface plasmon resonance (SPR).

Setting [2] is: HepG2 cells, ternary complex formation, read-out: TCF EC50.
Where [3] appears, read: 100 nM AF488-labeled antibody, 37° C. for 6 hours, class symbols, read-out: Uptake Assay EC50.

Where two headings read alike, the source gives them in different places.

As usually defined, the Kd is the constant that tells how readily two partners part at equilibrium. A word on the EC50: it is the concentration that produces a half-maximal response.

For the compound `CC(C)C[C@@H]1NC(=O)[C@H](Cc2cnc[nH]2)NC(=O)[C@H](Cc2c[nH]c3ccccc23)NC(=O)[C@H](C)NC(=O)[C@@H]2CSSC[C@H](NC(=O)[C@H](Cc3c[nH]c4ccccc34)NC(=O)[C@H](C(C)C)NC(=O)[C@H](CC(C)C)NC(=O)[C@H](CCC(=O)O)NC(=O)CNC1=O)C(=O)N[C@@H]([C@@H](C)O)C(=O)N1CCC[C@@H]1C(=O)N1C[C@@H](NC(=O)c3ccc(-c4ccc(C(=O)NC[C@H]5OC[C@H](Nc6cncc(C(F)(F)F)n6)[C@@H](O)[C@H]5O)cc4)cc3)C[C@H]1C(=O)N[C@@H](CC(=O)O)C(=O)N2` [Compound 72], the Kd on IgG (SPR, read-out: IgG KD) is under 0.1 µM; on ASGPR, under 0.1 µM. For the same compound, the EC50 in experiment [1] (setting [2]) is 0.5 to 1 µM; in the experiment on HepG2 cells (read-out: Uptake EC50) it was under 0.1 µM.
For `CC(C)C[C@@H]1NC(=O)[C@H](Cc2c[nH]cn2)NC(=O)[C@H](Cc2c[nH]c3ccccc23)NC(=O)[C@H](C)NC(=O)[C@@H]2CSSC[C@H](NC(=O)[C@H](Cc3c[nH]c4ccccc34)NC(=O)[C@H](C(C)C)NC(=O)[C@H](CC(C)C)NC(=O)[C@H](CCC(=O)O)NC(=O)CNC1=O)C(=O)N[C@@H]([C@@H](C)O)C(=O)N1CCC[C@@H]1C(=O)N1C[C@@H](NC(=O)CCOCCNC(=O)CCCc3cn(CCCCCC(=O)NC(COCCC(=O)NCCOCCOCCOCCOC[C@@]45CO[C@@H](O4)[C@H](Nc4nc(Cl)ns4)[C@@H](O)[C@H]5O)COCCC(=O)NCCOCCOCCOCCOC[C@@]45CO[C@@H](O4)[C@H](Nc4nc(Cl)ns4)[C@@H](O)[C@H]5O)nn3)C[C@H]1C(=O)N[C@@H](CC(=O)O)C(=O)N2` [Compound 9], the Kd at IgG (Biacore 8K, 25° C., IgG on CM5 chip, read-out: IgG SPR Binding Kd) was under 0.1 µM; on ASGPR, under 0.1 µM. Moreover, the EC50 (in experiment [1]; in the experiment with HepG2 cells (setting [3])) was under 0.1 µM each time.
With `CC(C)C[C@@H]1NC(=O)[C@H](Cc2c[nH]cn2)NC(=O)[C@H](Cc2c[nH]c3ccccc23)NC(=O)[C@H](C)NC(=O)[C@@H]2CSSC[C@H](NC(=O)[C@H](Cc3c[nH]c4ccccc34)NC(=O)[C@H](C(C)C)NC(=O)[C@H](CC(C)C)NC(=O)[C@H](CCC(=O)O)NC(=O)CNC1=O)C(=O)N[C@@H]([C@@H](C)O)C(=O)N1CCC[C@@H]1C(=O)N1C[C@@H](NC(=O)CCOCCOCCOCCOCCNC(=O)CCCc3cn(CCCCCC(=O)NC(COCCC(=O)NCCOCCOCCOCCOC[C@@]45CO[C@@H](O4)[C@H](NC(=O)C(F)(F)F)[C@@H](O)[C@H]5O)(COCCC(=O)NCCOCCOCCOCCOC[C@@]45CO[C@@H](O4)[C@H](NC(=O)C(F)(F)F)[C@@H](O)[C@H]5O)COCCC(=O)NCCOCCOCCOCCOC[C@@]45CO[C@@H](O4)[C@H](NC(=O)C(F)(F)F)[C@@H](O)[C@H]5O)nn3)C[C@H]1C(=O)N[C@@H](CC(=O)O)C(=O)N2` [Compound 95], the Kd was under 0.1 µM at IgG (SPR, read-out: IgG KD) and under 0.1 µM on ASGPR. Moreover, the EC50 (in experiment [1]; in the experiment on HepG2 cells (read-out: Uptake EC50)) was under 0.1 µM throughout.
On to `CC(C)C[C@@H]1NC(=O)[C@H](Cc2cnc[nH]2)NC(=O)[C@H](Cc2c[nH]c3ccccc23)NC(=O)[C@H](C)NC(=O)[C@@H]2CSSC[C@H](NC(=O)[C@H](Cc3c[nH]c4ccccc34)NC(=O)[C@H](C(C)C)NC(=O)[C@H](CC(C)C)NC(=O)[C@H](CCC(=O)O)NC(=O)CNC1=O)C(=O)N[C@@H]([C@@H](C)O)C(=O)N1CCC[C@@H]1C(=O)N1C[C@@H](NC(=O)COCCOCC(=O)NC[C@H]3OC[C@H](Nc4cncc(C(F)(F)F)n4)[C@@H](O)[C@H]3O)C[C@H]1C(=O)N[C@@H](CC(=O)O)C(=O)N2` [Compound 42], for which the Kd at IgG (SPR, read-out: IgG KD) was under 0.1 µM; at ASGPR, under 0.1 µM. Moreover, the EC50 (in experiment [1]; in experiment [1] (read-out: Ternary Complex EC50); in the experiment on HepG2 cells (setting [3]); with HepG2 cells (read-out: Uptake EC50)) was under 0.1 µM in each case.
In the case of `CC(C)C[C@@H]1NC(=O)[C@H](Cc2cnc[nH]2)NC(=O)[C@H](Cc2c[nH]c3ccccc23)NC(=O)[C@H](C)NC(=O)[C@@H]2CSSC[C@H](NC(=O)[C@H](Cc3c[nH]c4ccccc34)NC(=O)[C@H](C(C)C)NC(=O)[C@H](CC(C)C)NC(=O)[C@H](CCC(=O)O)NC(=O)CNC1=O)C(=O)N[C@@H]([C@@H](C)O)C(=O)N1CCC[C@@H]1C(=O)N1C[C@@H](NC(=O)CC(=O)NC[C@H]3OC[C@H](Nc4cncc(C(F)(F)F)n4)[C@@H](O)[C@H]3O)C[C@H]1C(=O)N[C@@H](CC(=O)O)C(=O)N2` [Compound 62], the Kd is under 0.1 µM on IgG (SPR, read-out: IgG KD) and under 0.1 µM at ASGPR. In addition, the concentration for a half-maximal effect (EC50) (in experiment [1] (setting [2]); in the experiment on HepG2 cells (read-out: Uptake EC50)) was under 0.1 µM throughout.
`CC(C)C[C@@H]1NC(=O)[C@H](Cc2c[nH]cn2)NC(=O)[C@H](Cc2c[nH]c3ccccc23)NC(=O)[C@H](C)NC(=O)[C@@H]2CSSC[C@H](NC(=O)[C@H](Cc3c[nH]c4ccccc34)NC(=O)[C@H](C(C)C)NC(=O)[C@H](CC(C)C)NC(=O)[C@H](CCC(=O)O)NC(=O)CNC1=O)C(=O)N[C@@H]([C@@H](C)O)C(=O)N1CCC[C@@H]1C(=O)N1C[C@@H](NC(=O)CCOCCOCCOCCOCCNC(=O)CCCc3cn(CCCCCC(=O)NC(COCCC(=O)NCCOCCOCCOCCOC[C@@]45CO[C@@H](O4)[C@H](NC(=O)C(F)(F)F)[C@@H](O)[C@H]5O)COCCC(=O)NCCOCCOCCOCCOC[C@@]45CO[C@@H](O4)[C@H](NC(=O)C(F)(F)F)[C@@H](O)[C@H]5O)nn3)C[C@H]1C(=O)N[C@@H](CC(=O)O)C(=O)N2` [Compound 94]: the Kd on IgG (SPR, read-out: IgG KD) is under 0.1 µM; at ASGPR, under 0.1 µM. Moreover, the EC50 (in experiment [1] (setting [2]); in the experiment on HepG2 cells (read-out: Uptake EC50)) was under 0.1 µM in each case.
For the compound `CC(C)C[C@@H]1NC(=O)[C@H](Cc2cnc[nH]2)NC(=O)[C@H](Cc2c[nH]c3ccccc23)NC(=O)[C@H](C)NC(=O)[C@@H]2CSSC[C@H](NC(=O)[C@H](Cc3c[nH]c4ccccc34)NC(=O)[C@H](C(C)C)NC(=O)[C@H](CC(C)C)NC(=O)[C@H](CCC(=O)O)NC(=O)CNC1=O)C(=O)N[C@@H]([C@@H](C)O)C(=O)N1CCC[C@@H]1C(=O)N1C[C@@H](NC(=O)COc3ccc(CC(=O)NC[C@H]4OC[C@H](Nc5cncc(C(F)(F)F)n5)[C@@H](O)[C@H]4O)cc3)C[C@H]1C(=O)N[C@@H](CC(=O)O)C(=O)N2` [Compound 61], the dissociation constant Kd at IgG (SPR, read-out: IgG KD) was under 0.1 µM; at ASGPR, under 0.1 µM. Further, the EC50 (in experiment [1] (setting [2]); with HepG2 cells (read-out: Uptake EC50)) was under 0.1 µM throughout.
In the case of `CC(C)C[C@@H]1NC(=O)[C@H](Cc2c[nH]cn2)NC(=O)[C@H](Cc2c[nH]c3ccccc23)NC(=O)[C@H](C)NC(=O)[C@@H]2CSSC[C@H](NC(=O)[C@H](Cc3c[nH]c4ccccc34)NC(=O)[C@H](C(C)C)NC(=O)[C@H](CC(C)C)NC(=O)[C@H](CCC(=O)O)NC(=O)CNC1=O)C(=O)N[C@@H]([C@@H](C)O)C(=O)N1CCC[C@@H]1C(=O)N1C[C@@H](NC(=O)CNC(COCCC(=O)NCCOCCOCCOCCOC[C@H]3OC[C@H](Nc4cncc(C(F)(F)F)n4)[C@@H](O)[C@H]3O)COCCC(=O)NCCOCCOCCOCCOC[C@H]3OC[C@H](Nc4cncc(C(F)(F)F)n4)[C@@H](O)[C@H]3O)C[C@H]1C(=O)N[C@@H](CC(=O)O)C(=O)N2` [Compound 45], the Kd at IgG (SPR, read-out: IgG KD) was under 0.1 µM; on ASGPR, under 0.1 µM. Besides, the EC50 (in experiment [1]; with HepG2 cells (setting [3])) was under 0.1 µM each time.
Consider `CC(C)C[C@@H]1NC(=O)[C@H](Cc2cnc[nH]2)NC(=O)[C@H](Cc2c[nH]c3ccccc23)NC(=O)[C@H](C)NC(=O)[C@@H]2CSSC[C@H](NC(=O)[C@H](Cc3c[nH]c4ccccc34)NC(=O)[C@H](C(C)C)NC(=O)[C@H](CC(C)C)NC(=O)[C@H](CCC(=O)N(C)C)NC(=O)CNC1=O)C(=O)N[C@@H]([C@@H](C)O)C(=O)N1CCC[C@@H]1C(=O)N1C[C@@H](NC(=O)CNC(COCCC(=O)NCCOCCOCCOCCOC[C@H]3OC[C@H](Nc4cncc(C(F)(F)F)n4)[C@@H](O)[C@H]3O)COCCC(=O)NCCOCCOCCOCCOC[C@H]3OC[C@H](Nc4cncc(C(F)(F)F)n4)[C@@H](O)[C@H]3O)C[C@H]1C(=O)N[C@@H](C)C(=O)N2` [Compound 77], for which the Kd at IgG (SPR, read-out: IgG KD) was under 0.1 µM; on ASGPR, under 0.1 µM. For the same compound, the EC50 was under 0.1 µM in experiment [1] (TCF EC50, HepG2 cells, ternary complex formation) and under 0.1 µM in the experiment on HepG2 cells (read-out: Uptake EC50).
